{"source": "paper PMC9096814", "about": "(Biochemistry, 2022)", "key": {"Cathepsin K": {"molecular_target": "T1, Cathepsin K (Homo sapiens, UniProt P43235)", "T1 sequence (P43235 115-329)": "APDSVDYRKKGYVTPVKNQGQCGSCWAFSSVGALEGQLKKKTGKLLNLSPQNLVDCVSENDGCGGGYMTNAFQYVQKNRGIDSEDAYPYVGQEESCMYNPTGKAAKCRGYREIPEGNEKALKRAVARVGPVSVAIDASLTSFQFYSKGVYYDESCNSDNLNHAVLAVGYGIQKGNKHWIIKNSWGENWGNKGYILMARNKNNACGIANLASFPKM", "test": "Selectivity assay, cathepsin K", "assay_type": "biochemical", "conditions": "for % inhibition: 16 μM inhibitor"}, "Cathepsin V": {"molecular_target": "Cathepsin V (Homo sapiens, UniProt O60911)", "sequence (O60911 114-334)": "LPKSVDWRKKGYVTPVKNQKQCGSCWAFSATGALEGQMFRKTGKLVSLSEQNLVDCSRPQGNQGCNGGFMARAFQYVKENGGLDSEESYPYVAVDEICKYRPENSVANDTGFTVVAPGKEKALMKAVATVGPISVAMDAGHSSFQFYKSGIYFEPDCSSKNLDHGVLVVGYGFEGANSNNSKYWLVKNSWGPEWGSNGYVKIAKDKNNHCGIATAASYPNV", "test": "Selectivity assay, cathepsin V", "assay_type": "biochemical", "conditions": "for % inhibition: 16 μM inhibitor"}, "Cathepsin S": {"molecular_target": "Cathepsin S (Homo sapiens, UniProt P25774)", "sequence (P25774 115-331)": "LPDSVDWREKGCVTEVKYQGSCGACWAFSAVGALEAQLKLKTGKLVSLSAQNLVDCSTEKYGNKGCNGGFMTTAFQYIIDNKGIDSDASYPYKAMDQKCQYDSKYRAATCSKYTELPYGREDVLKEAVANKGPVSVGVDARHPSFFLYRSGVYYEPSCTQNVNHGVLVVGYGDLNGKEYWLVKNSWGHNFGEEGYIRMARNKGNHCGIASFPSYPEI", "test": "Selectivity assay, cathepsin S", "assay_type": "biochemical", "conditions": "for % inhibition: 16 μM inhibitor"}, "Cathepsin L": {"molecular_target": "Cathepsin L (Homo sapiens, UniProt P07711)", "sequence (P07711 114-333)": "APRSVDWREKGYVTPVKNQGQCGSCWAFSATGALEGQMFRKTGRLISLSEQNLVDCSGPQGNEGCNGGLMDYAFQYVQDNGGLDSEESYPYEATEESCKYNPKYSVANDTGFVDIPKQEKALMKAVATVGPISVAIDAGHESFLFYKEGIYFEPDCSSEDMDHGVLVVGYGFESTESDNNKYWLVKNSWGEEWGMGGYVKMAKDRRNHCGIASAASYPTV", "test": "Selectivity assay, cathepsin L", "assay_type": "biochemical", "conditions": "for % inhibition: 16 μM inhibitor"}, "Cathepsin C": {"molecular_target": "Cathepsin C (Homo sapiens, UniProt P53634)", "sequence (P53634 25-134 limits assumed)": "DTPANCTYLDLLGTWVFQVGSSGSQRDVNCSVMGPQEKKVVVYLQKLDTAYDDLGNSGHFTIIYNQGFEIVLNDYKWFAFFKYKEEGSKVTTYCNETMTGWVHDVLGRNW", "sequence (P53634 231-394 limits assumed)": "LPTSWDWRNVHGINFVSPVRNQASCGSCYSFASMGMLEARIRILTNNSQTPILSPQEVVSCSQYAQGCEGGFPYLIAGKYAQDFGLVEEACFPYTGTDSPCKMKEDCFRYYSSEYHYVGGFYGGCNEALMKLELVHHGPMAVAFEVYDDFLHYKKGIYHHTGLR", "sequence (P53634 395-463 limits assumed)": "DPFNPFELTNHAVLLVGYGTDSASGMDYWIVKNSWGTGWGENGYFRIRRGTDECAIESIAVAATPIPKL", "test": "Selectivity assay, cathepsin C", "assay_type": "biochemical", "conditions": "for % inhibition: 16 μM inhibitor"}, "cathepsin B [1]": {"molecular_target": "T2, cathepsin B (Homo sapiens, UniProt P07858)", "test": "Irreversible inhibition mechanism by dilution experiments", "assay_type": "biochemical", "conditions": "pH 4.6, pH 5.5, and pH 7.2; preincubation at 10 times the IC50, diluted 100-fold, Z-F-R-AMC added"}, "Cathepsin H": {"molecular_target": "Cathepsin H (Homo sapiens, UniProt P09668)", "sequence (P09668 116-335 limits assumed, other chains not shown)": "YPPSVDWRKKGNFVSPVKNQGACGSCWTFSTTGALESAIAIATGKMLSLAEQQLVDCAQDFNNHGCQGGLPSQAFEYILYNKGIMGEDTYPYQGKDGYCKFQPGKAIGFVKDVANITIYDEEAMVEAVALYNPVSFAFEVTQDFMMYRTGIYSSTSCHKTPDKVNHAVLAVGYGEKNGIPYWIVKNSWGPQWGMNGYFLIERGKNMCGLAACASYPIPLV", "test": "Selectivity assay, cathepsin H", "assay_type": "biochemical", "conditions": "for % inhibition: 16 μM inhibitor"}, "Cathepsin X": {"molecular_target": "Cathepsin X (Homo sapiens, UniProt Q9UBR2)", "sequence (Q9UBR2 62-303)": "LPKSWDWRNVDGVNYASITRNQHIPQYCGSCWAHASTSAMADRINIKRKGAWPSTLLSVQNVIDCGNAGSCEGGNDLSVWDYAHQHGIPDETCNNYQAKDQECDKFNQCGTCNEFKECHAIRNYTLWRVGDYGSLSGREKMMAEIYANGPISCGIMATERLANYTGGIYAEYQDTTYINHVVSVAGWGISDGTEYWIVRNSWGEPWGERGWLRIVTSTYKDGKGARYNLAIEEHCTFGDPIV", "test": "Selectivity assay, cathepsin X", "assay_type": "biochemical", "conditions": "for % inhibition: 16 μM inhibitor"}, "cathepsin B [2]": {"molecular_target": "T2, cathepsin B", "test": "Cathepsin B activity assay with Z-Phe-Arg-AMC, inhibition kinetics", "assay_type": "biochemical", "conditions": "for KI (inactivation): read-out: KI, irreversible inhibitor kinetics"}, "cathepsin B [3]": {"test_system": "cathepsin B", "conditions": "ref [44]; cited from earlier work"}, "cathepsin B [4]": {"molecular_target": "T2, cathepsin B", "test": "Multiplex substrate profiling by mass spectrometry", "assay_type": "biochemical", "conditions": "10 nM inhibitor, 30 min preincubation"}}, "note": "pIC50: −log10 of the molar value. Like-named read-outs stand apart in the source and are kept apart here."}
{"smiles": "CCCNC(=O)[C@H]1O[C@@H]1C(=O)N[C@H](C(=O)N1CCC[C@H]1C(=O)OC)[C@@H](C)CC", "note": "[CA-074Me]", "values": [{"measurement": "pIC50", "setting": "Cathepsin K; pH 4.6", "result": "< 4.80"}, {"measurement": "% inhibition", "setting": "Cathepsin K; pH 4.6", "result": 0, "unit": "%"}, {"measurement": "pIC50", "setting": "Cathepsin K; pH 5.5", "result": "< 4.80"}, {"measurement": "% inhibition", "setting": "Cathepsin K; pH 5.5", "result": 0, "unit": "%"}, {"measurement": "pIC50", "setting": "Cathepsin K; pH 7.2", "result": "< 4.80"}, {"measurement": "% inhibition", "setting": "Cathepsin K; pH 7.2", "result": 16, "unit": "%"}, {"measurement": "pIC50", "setting": "Cathepsin V; pH 5.5", "result": "< 4.80"}, {"measurement": "% inhibition", "setting": "Cathepsin V; pH 5.5", "result": 22, "unit": "%"}, {"measurement": "pIC50", "setting": "Cathepsin V; pH 7.2", "result": "< 4.80"}, {"measurement": "% inhibition", "setting": "Cathepsin V; pH 7.2", "result": 0, "unit": "%"}, {"measurement": "pIC50", "setting": "Cathepsin S; pH 4.6", "result": "< 4.80"}, {"measurement": "% inhibition", "setting": "Cathepsin S; pH 4.6", "result": 22, "unit": "%"}, {"measurement": "pIC50", "setting": "Cathepsin S; pH 5.5", "result": 5.26}, {"measurement": "pIC50", "setting": "Cathepsin S; pH 7.2", "result": 5.42}, {"measurement": "pIC50", "setting": "Cathepsin L; pH 4.6", "result": "< 4.80"}, {"measurement": "% inhibition", "setting": "Cathepsin L; pH 4.6", "result": 0, "unit": "%"}, {"measurement": "pIC50", "setting": "Cathepsin L; pH 5.5", "result": "< 4.80"}, {"measurement": "% inhibition", "setting": "Cathepsin L; pH 5.5", "result": 0, "unit": "%"}, {"measurement": "pIC50", "setting": "Cathepsin C; pH 4.6", "result": "< 4.80"}, {"measurement": "% inhibition", "setting": "Cathepsin C; pH 4.6", "result": 5, "unit": "%"}, {"measurement": "pIC50", "setting": "Cathepsin C; pH 5.5", "result": "< 4.80"}, {"measurement": "% inhibition", "setting": "Cathepsin C; pH 5.5", "result": 0, "unit": "%"}, {"measurement": "pIC50", "setting": "Cathepsin C; pH 7.2", "result": "< 4.80"}, {"measurement": "% inhibition", "setting": "Cathepsin C; pH 7.2", "result": 4, "unit": "%"}, {"measurement": "irreversible or reversible inhibition of cathepsin B", "setting": "cathepsin B [1]", "result": "irreversible inhibition"}, {"measurement": "pIC50", "setting": "Cathepsin H; pH 4.6", "result": "< 4.80"}, {"measurement": "% inhibition", "setting": "Cathepsin H; pH 4.6", "result": 0, "unit": "%"}, {"measurement": "pIC50", "setting": "Cathepsin H; pH 5.5", "result": "< 4.80"}, {"measurement": "% inhibition", "setting": "Cathepsin H; pH 5.5", "result": 0, "unit": "%"}, {"measurement": "pIC50", "setting": "Cathepsin H; pH 7.2", "result": "< 4.80"}, {"measurement": "% inhibition", "setting": "Cathepsin H; pH 7.2", "result": 19, "unit": "%"}, {"measurement": "pIC50", "setting": "Cathepsin X; pH 4.6", "result": "< 4.80"}, {"measurement": "% inhibition", "setting": "Cathepsin X; pH 4.6", "result": 0, "unit": "%"}, {"measurement": "pIC50", "setting": "Cathepsin X; pH 5.5", "result": "< 4.80"}, {"measurement": "% inhibition", "setting": "Cathepsin X; pH 5.5", "result": 0, "unit": "%"}, {"measurement": "pIC50", "setting": "cathepsin B [2]; pH 4.6", "result": 5.05}, {"measurement": "fold less potent than CA-074 (IC50)", "setting": "cathepsin B [2]; pH 4.6", "result": 1495, "unit": "fold"}, {"measurement": "kinact", "setting": "cathepsin B [2]; pH 4.6", "result": 0.016, "unit": "s⁻¹"}, {"measurement": "kinact/KI", "setting": "cathepsin B [2]; pH 4.6", "result": 310, "unit": "M⁻¹ s⁻¹"}, {"measurement": "pIC50", "setting": "cathepsin B [2]; pH 4.6, Z-Phe-Arg-AMC substrate, no preincubation", "result": 5.05}, {"measurement": "fold less potent than CA-074 (IC50)", "setting": "cathepsin B [2]; pH 5.5", "result": 311, "unit": "fold"}, {"measurement": "kinact", "setting": "cathepsin B [2]; pH 5.5", "result": 0.014, "unit": "s⁻¹"}, {"measurement": "kinact/KI", "setting": "cathepsin B [2]; pH 5.5", "result": 250, "unit": "M⁻¹ s⁻¹"}, {"measurement": "potency (KI) compared to CA-074", "setting": "cathepsin B [2]; pH 5.5", "result": "1/265"}, {"measurement": "pIC50", "setting": "cathepsin B [2]; pH 5.5, Z-Phe-Arg-AMC substrate, no preincubation", "result": 4.86}, {"measurement": "pIC50", "setting": "cathepsin B [2]; pH 7.2", "result": 5.12}, {"measurement": "fold less potent than CA-074 (IC50)", "setting": "cathepsin B [2]; pH 7.2", "result": 10, "unit": "fold"}, {"measurement": "kinact", "setting": "cathepsin B [2]; pH 7.2", "result": 0.014, "unit": "s⁻¹"}, {"measurement": "kinact/KI", "setting": "cathepsin B [2]; pH 7.2", "result": 480, "unit": "M⁻¹ s⁻¹"}, {"measurement": "potency (KI) compared to CA-074", "setting": "cathepsin B [2]; pH 7.2", "result": "1/15"}, {"measurement": "pIC50", "setting": "cathepsin B [2]; pH 7.2, Z-Phe-Arg-AMC substrate, no preincubation", "result": 5.12}, {"measurement": "KI (inactivation)", "setting": "cathepsin B [2]; pH 4.6", "result": 52, "unit": "µM"}, {"measurement": "KI (inactivation)", "setting": "cathepsin B [2]; pH 5.5", "result": 56, "unit": "µM"}, {"measurement": "KI (inactivation)", "setting": "cathepsin B [2]; pH 7.2", "result": 29, "unit": "µM"}]}
{"smiles": "Cc1cccc(C)c1C(=O)OCC(=O)[C@H](CCCCN)NC(=O)[C@H](CCCN=C(N)N)NC(=O)OCc1ccccc1", "note": "[Z-Arg-Lys-AOMK]", "values": [{"measurement": "fold selective at inhibiting cathepsin B at pH 7.4 over pH 4.6", "setting": "cathepsin B [3]", "result": "> 100", "unit": "fold"}]}
{"smiles": "CCCNC(=O)[C@H]1O[C@@H]1C(=O)N[C@H](C(=O)N1CCC[C@H]1C(=O)O)[C@@H](C)CC", "note": "(relative stereo) [CA-074, N-(L-3-trans-propylcarbamoyloxirane-2-carbonyl)-L-isoleucyl-L-proline]", "values": [{"measurement": "pIC50", "setting": "Cathepsin K; pH 4.6", "result": "< 4.80"}, {"measurement": "% inhibition", "setting": "Cathepsin K; pH 4.6, 16 µM", "result": 8, "unit": "%"}, {"measurement": "pIC50", "setting": "Cathepsin K; pH 5.5", "result": "< 4.80"}, {"measurement": "pIC50", "setting": "Cathepsin K; pH 7.2", "result": "< 4.80"}, {"measurement": "pIC50", "setting": "Cathepsin V; pH 4.6", "result": "< 4.80"}, {"measurement": "% inhibition", "setting": "Cathepsin V; pH 4.6, 16 µM", "result": 10, "unit": "%"}, {"measurement": "pIC50", "setting": "Cathepsin V; pH 5.5", "result": "< 4.80"}, {"measurement": "pIC50", "setting": "Cathepsin V; pH 7.2", "result": "< 4.80"}, {"measurement": "pIC50", "setting": "Cathepsin S; pH 4.6", "result": "< 4.80"}, {"measurement": "pIC50", "setting": "Cathepsin S; pH 5.5", "result": 5.32}, {"measurement": "pIC50", "setting": "Cathepsin S; pH 7.2", "result": "< 4.80"}, {"measurement": "% inhibition", "setting": "Cathepsin S; pH 7.2", "result": 29, "unit": "%"}, {"measurement": "pIC50", "setting": "Cathepsin C; pH 4.6", "result": "< 4.80"}, {"measurement": "pIC50", "setting": "Cathepsin C; pH 5.5", "result": "< 4.80"}, {"measurement": "pIC50", "setting": "Cathepsin C; pH 7.2", "result": "< 4.80"}, {"measurement": "irreversible or reversible inhibition of cathepsin B", "setting": "cathepsin B [1]", "result": "irreversible"}, {"measurement": "effect on cathepsin B cleavages of peptide library substrates (MSP-MS)", "setting": "cathepsin B [4]; pH 4.6", "result": "blocked"}, {"measurement": "effect on cathepsin B cleavages of peptide library substrates (MSP-MS)", "setting": "cathepsin B [4]; pH 7.2", "result": "no effect"}, {"measurement": "pIC50", "setting": "Cathepsin X; pH 4.6", "result": "< 4.80"}, {"measurement": "% inhibition", "setting": "Cathepsin X; pH 4.6, 16 µM", "result": 5, "unit": "%"}, {"measurement": "pIC50", "setting": "Cathepsin X; pH 5.5", "result": "< 4.80"}, {"measurement": "effect on cathepsin B cleavage of Z-Phe-Arg-AMC substrate", "setting": "cathepsin B [2]; 10 nM inhibitor, pH 7.2", "result": "no effect"}]}
